Tests used:
[1] = test system: P-gp (MDR1); test: MDCK-MDR1 assay (permeability, efflux ratio); assay type: in vitro ADME; settings: dog, Papp BA/Papp AB, 60-minute incubation
Experimental: The permeability of the test compounds was assessed in MDCK-MDR1 cells that were cultured to confluency (4-6 days) in a 96 transwell plate. Test compounds were diluted with the transport buffer (HBSS+1% BSA) to a concentration of 0.5 μM and applied to the apical or basolateral side of the cell monolayer. Permeation of the test compounds from A to B direction or B to A direction was determined in triplicate over a 60-minute incubation time at 37° C. and 5% CO2 with a relative humidity of 95%. Test compounds were quantified by LC-MS/MS analysis based on the peaks area ratios of analyte/IS in both the receiver and donor wells of the transwell plate. The apparent permeability coefficient Papp (cm/s) was calculated using the equation: […]
Where dCr/dt is the cumulative concentration of compound in the receiver chamber as a function of time (μM/s); Vr is the solution volume in the receiver chamber (0.05 mL on the apical side; 0.25 mL on the basolateral side); A is the surface area for the transport, i.e. 0.0804 cm^2 for the area of the monolayer; CO is the initial concentration in the donor chamber (μM).

[2] = biological target: T1, human BACE1 (Homo sapiens, UniProt P56817); test: BACE1 efficacy assay (FRET-based, commercial BACE1 kit); assay type: biochemical; design: purchased Life Technologies P2985; settings: 10 μM test compound
Experimental: The efficacy assay was performed as a FRET-based assay using a commercially available BACE1 kit (Life Technologies, P2985). 2 μl test compound at 10 μM (final concentration) and 15 μl BACE1 enzyme from the kit (final concentration 3 nM) were preincubated for 15 minutes at room temperature before addition of 15 μl of substrate from the kit (250 nM final concentration) and incubated for additional 90 minutes at room temperature. The assay plate was subsequently read in a Pherastar (Ex540/Em590). The enzyme activity observed in presence of test compound were normalized to the enzyme activity observed in presence of buffer and 10 μM (final concentration) of the high affinity BACE1 reference inhibitor (S)-6-[3-Chloro-5-(5-prop-1-ynyl-pyridin-3-yl)-thiophen-2-yl]-2-imino-3,6-dimethyl-tetrahydropyrimidin-4-one, respectively. The efficacy of the test compounds was evaluated at 10 μM (final concentration) and defined as the percent inhibition of the enzyme activity using the equation % inhibition=100%−normalized enzyme activity in percent.

[3] = biological target: T1, human BACE1; test: BACE1 binding assay (SPA-based radioligand binding); design: biotin (biotinylated form); made in house; host or cells: Freestyle HEK293 cells; settings: pH 4.5, 10 nM radioligand, Ki=IC50/(1+L/Kd)
Experimental: The binding assay was performed as SPA-based assay using a biotinylated form of human BACE1 recombinantly expressed and subsequently purified from Freestyle HEK293 cells. The binding assay was run in a 50 mM sodium acetate buffer, pH 4.5 containing 50 mM NaCl and 0.03% Tween-20 in white clear bottom 384 plates (Corning #3653). 10 nM (final concentration) radioligand ([^3H]—N-((1S,2R)-1-benzyl-3-cyclopropylamino-2-hydroxy-propyl)-5-(methanesulfonyl-methyl-amino)-N—((R)-1-phenyl-ethyl)-isophthalamide) (TRQ11569 purchased from GE Healthcare) was mixed with test compound at a given concentration, 6 nM (final concentration) human BACE1 and 25 μg Streptavidin coated PVT core SPA beads (RPNQ0007, GE Healthcare Life Sciences) in a total volume of 40 μl. Several concentrations of each test compound were tested in the assay for […] determination. The plates were incubated for one hour at room temperature and counted in a Wallac Trilux counter. Total and non-specific binding were determined using buffer and 1 μM (final concentration) of the high affinity BACE1 reference inhibitor (S)-6-[3-chloro-5-(5-prop-1-ynyl-pyridin-3-yl)-thiophen-2-yl]-2-imino-3,6-dimethyl-tetrahydro-pyrimidin-4-one, respectively. For each test compound, a 1050 value (the concentration mediating 50% inhibition of the specific binding of the radioligand) was determined from concentration-response curve and used to calculate the Ki from the equation Ki=IC50/(1+L/Kd), where L and Kd are the final concentration of the radioligand used in the assay and the dissociation constant of the radioligand, respectively. The Kd of the radioligand was determined from saturation binding experiments.

T1 sequence (P56817 46-501): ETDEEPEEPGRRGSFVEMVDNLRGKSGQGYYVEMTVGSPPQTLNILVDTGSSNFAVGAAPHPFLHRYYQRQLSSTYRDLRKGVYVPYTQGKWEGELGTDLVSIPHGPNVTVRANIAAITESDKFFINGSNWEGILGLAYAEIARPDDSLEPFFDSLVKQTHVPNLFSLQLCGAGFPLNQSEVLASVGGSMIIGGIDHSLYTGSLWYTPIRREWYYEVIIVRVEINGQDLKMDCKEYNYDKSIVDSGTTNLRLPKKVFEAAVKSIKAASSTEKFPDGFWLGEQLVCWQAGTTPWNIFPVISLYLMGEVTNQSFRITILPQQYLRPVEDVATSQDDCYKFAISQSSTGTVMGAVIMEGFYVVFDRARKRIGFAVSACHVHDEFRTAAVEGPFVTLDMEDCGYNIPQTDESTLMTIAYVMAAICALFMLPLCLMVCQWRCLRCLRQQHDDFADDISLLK

| efflux ratio at 60 min, 0.5 μM [1] | inhibition at 10 µM [2] [%] | Ki [3] [nM] | SMILES |
| --- | --- | --- | --- |
| 0.97 | 110 | 88 | NC1=N[C@@]2(c3cc(NC(=O)c4ccc(F)cn4)ccc3F)COC[C@H]2C[C@]1(F)CF [Example 16, N-(3-((3R,4aS,7aS)-2-amino-3-fluoro-3-(fluoromethyl)-3,4,4a,5-tetrahydrofuro[3,4-b]pyridin-7a-yl)-4-fluorophenyl)-5-fluoropicolinamide] |
| 0.61 | 103 | 55 | COc1ccc(C(=O)Nc2ccc(F)c([C@]34COC[C@H]3C[C@@](F)(CF)C(N)=N4)c2)nc1 [Example 21, N-(3-((3S,4aS,7aS)-2-amino-3-fluoro-3-(fluoromethyl)-3,4,4a,5,7,7a-hexahydrofuro[3,4-b]pyridin-7a-yl)-4-fluorophenyl)-5-methoxypicolinamide] |
| 1.25 | 105 | 99 | COc1ccc(C(=O)Nc2cc(F)c(F)c([C@]34COC[C@H]3C[C@](F)(CF)C(N)=N4)c2)nc1 [Example 17, N-[3-[(3R,4aS,7aS)-2-amino-3-fluoro-3-(fluoromethyl)-4,4a,5,7-tetrahydrofuro[3,4-b]pyridin-7a-yl]-4,5-difluoro-phenyl]-5-methoxy-pyridine-2-carboxamide] |

From US20180230160A1, “2-AMINO-7A-PHENYL-3,4,4A,5,7,7A-HEXAHYDROFURO[3,4-B]PYRIDINES AS BACE1 INHIBITORS” (H. Lundbeck A/S, priority 2015, published 2018)
